How the values were obtained:
KRas G12D = KRas G12D (Homo sapiens, UniProt P01116, G12D); test: biochemical;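 note: TR-FRET displacement binding assay on KRas, read after a one-hour incubation at room temperature, IC50 fitted from percent-of-control values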
Method: (§1) The ability of a compound to bind to KRas was measured using a TR-FRET displacement assay. […] After a 60-minute incubation at room temperature, the reaction was measured using a BMG LABTECH CLARIO star Plus via TR-FRET. […] The POC values were fit to a 4-parameter IC50 equation and the IC50 value reported.

KRas G12V = KRas G12V (Homo sapiens, UniProt P01116, G12V); test: biochemical;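 note: KRas binding measured by TR-FRET displacement at room temperature, IC50 fitted from percent of control values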
Method: as §1

KRas G12R = KRas G12R (Homo sapiens, UniProt P01116, G12R); test: biochemical;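 note: TR-FRET displacement assay of compound binding to KRas, read after one hour at room temperature, potency from a four-parameter fit of percent-of-control values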
Sequence of KRas G12R (P01116 1-169 isoform P01116-2 G12R): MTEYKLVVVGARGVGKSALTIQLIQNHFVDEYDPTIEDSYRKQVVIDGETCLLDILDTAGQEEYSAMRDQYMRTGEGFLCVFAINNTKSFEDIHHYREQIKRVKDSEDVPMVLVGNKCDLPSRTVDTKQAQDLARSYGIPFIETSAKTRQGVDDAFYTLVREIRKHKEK
Method: as §1

pERK in MKN1 cells = test: Inhibition of KRas phosphorylation of ERK (Cisbio HTRF pERK assay); conditions: Homo sapiens, MKN-1, 3 h, read-out: Inhibition (HTRF IC50) of KRas-mediated Phosphorylation of ERK, MKN1
pERK in PSN1 cells = test: as above; conditions: Homo sapiens, PSN1, 3 h, read-out: Inhibition (HTRF IC50) of KRas-mediated Phosphorylation of ERK, PSN1
pERK in ASPC1 cells = test: as above; conditions: Homo sapiens, ASPC1, read-out: Inhibition (HTRF IC50) of KRas-mediated Phosphorylation of ERK, AsPC-1
pERK in H727 cells = test: as above; conditions: Homo sapiens, NCI-H727, read-out: Inhibition (HTRF IC50) of KRas-mediated Phosphorylation of ERK, H727
pERK in A549 cells = test: as above; conditions: Homo sapiens, A549, read-out: Inhibition (HTRF IC50) of KRas-mediated Phosphorylation of ERK, A549
pERK in H460 cells = test: as above; conditions: Homo sapiens, NCI-H460, read-out: Inhibition (HTRF IC50) of KRas-mediated Phosphorylation of ERK, H460
pERK in HCT116 cells = test: as above; conditions: Homo sapiens, HCT-116, read-out: Inhibition (HTRF IC50) of KRas-mediated Phosphorylation of ERK, HCT116
pERK in H358 cells = test: as above; conditions: Homo sapiens, NCI-H358, read-out: Inhibition (HTRF IC50) of KRas-mediated Phosphorylation of ERK, H358

Sequence of KRas G12V (P01116 1-169 isoform P01116-2 G12V): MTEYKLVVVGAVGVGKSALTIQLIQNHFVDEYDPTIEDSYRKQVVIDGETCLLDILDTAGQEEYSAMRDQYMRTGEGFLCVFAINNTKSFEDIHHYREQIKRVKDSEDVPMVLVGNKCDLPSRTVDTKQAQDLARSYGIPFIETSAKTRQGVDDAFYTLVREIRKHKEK
Sequence of KRas G12D (P01116 1-169 isoform P01116-2 G12D): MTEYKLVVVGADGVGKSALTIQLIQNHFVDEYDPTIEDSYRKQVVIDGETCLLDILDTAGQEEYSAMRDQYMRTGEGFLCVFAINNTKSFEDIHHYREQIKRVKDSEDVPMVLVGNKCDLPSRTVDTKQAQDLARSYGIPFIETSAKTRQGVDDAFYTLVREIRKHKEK

Compound | IC50 (KRas G12D) [nM] | IC50 (KRas G12V) [nM] | IC50 (KRas G12R) [nM] | IC50 (pERK in MKN1 cells) [nM] | IC50 (pERK in PSN1 cells) [nM] | IC50 (pERK in ASPC1 cells) [nM] | IC50 (pERK in H727 cells) [nM] | IC50 (pERK in A549 cells) [nM] | IC50 (pERK in H460 cells) [nM] | IC50 (pERK in HCT116 cells) [nM] | IC50 (pERK in H358 cells) [nM]
Oc1cc(-c2ncc3c(N4CCCC5(CC(O)C5)C4)nc(OC[C@@]45CCCN4C[C@H](F)C5)nc3c2F)c2c(Cl)c(F)ccc2c1 (stereo partly drawn) [Example 425, 6-(7-(8-chloro-7-fluoro-3-hydroxynaphthalen-1-yl)-8-fluoro-2-(((2R,7aS)-2-fluorohexahydro-1H-pyrrolizin-7a-yl)methoxy)pyrido[4,3-d]pyrimidin-4-yl)-6-azaspiro[3.5]nonan-2-ol] | ≤ 2 | ≤ 2 | ≤ 2 | 5 | 921 | 42 | 37 | 54 | 99 | 73 | 12
CN(C)C(=O)c1cc2n(n1)CCCN(c1nc(OC[C@@]34CCCN3C[C@H](F)C4)nc3c(F)c(-c4cc(O)cc5ccc(F)c(Cl)c45)ncc13)C2 [Example 427, 5-(7-(8-chloro-7-fluoro-3-hydroxynaphthalen-1-yl)-8-fluoro-2-(((2R,7aS)-2-fluorohexahydro-1H-pyrrolizin-7a-yl)methoxy)pyrido[4,3-d]pyrimidin-4-yl)-N,N-dimethyl-5,6,7,8-tetrahydro-4H-pyrazolo[1,5-a][1,4]diazepine-2-carboxamide] | ≤ 2 | ≤ 2 | ≤ 2 | 84 | 7680 | 32 | 59 | 379 | 878 | 916 | 52
CCc1c(F)ccc2cc(O)cc(-c3ncc4c(N5CCCn6nc(C(=O)N7CCN(C)CC7)cc6C5)nc(OC[C@@]56CCCN5C[C@H](F)C6)nc4c3F)c12 [Example 477, (5-(7-(8-ethyl-7-fluoro-3-hydroxynaphthalen-1-yl)-8-fluoro-2-(((2R,7aS)-2-fluorotetrahydro-1H-pyrrolizin-7a(5H)-yl)methoxy)pyrido[4,3-d]pyrimidin-4-yl)-5,6,7,8-tetrahydro-4H-pyrazolo[1,5-a][1,4]diazepin-2-yl)(4-methylpiperazin-1-yl)methanone] | ≤ 2 | ≤ 2 | ≤ 2 | 67 | ≥ 10000 | 61 | 456 | 865 | 1570 | 2840 | 180

The next lines start with the values.

IC50 (KRas G12D) [nM] | IC50 (KRas G12V) [nM] | IC50 (KRas G12R) [nM] | IC50 (pERK in MKN1 cells) [nM] | IC50 (pERK in PSN1 cells) [nM] | IC50 (pERK in ASPC1 cells) [nM] | IC50 (pERK in H727 cells) [nM] | IC50 (pERK in A549 cells) [nM] | IC50 (pERK in H460 cells) [nM] | IC50 (pERK in HCT116 cells) [nM] | IC50 (pERK in H358 cells) [nM] | Compound
24 | 11 | 6 | 68 | 8290 | 95 | 407 | 261 | 245 | 525 | 117 | CCc1c(F)ccc2cc(O)cc(-c3ncc4c(N5CCOCC(C)(CO)C5)nc(OC[C@@]56CCCN5C[C@H](F)C6)nc4c3F)c12 (stereo partly drawn) [Example 496, 5-ethyl-6-fluoro-4-(8-fluoro-2-(((2R,7aS)-2-fluorotetrahydro-1H-pyrrolizin-7a(5H)-yl)methoxy)-4-(6-(hydroxymethyl)-6-methyl-1,4-oxazepan-4-yl)pyrido[4,3-d]pyrimidin-7-yl)naphthalen-2-ol]
5 | 3 | 3 | 13 | ≥ 10000 | 47 | 64 | 48 | 66 | 168 | 21 | CCc1c(F)ccc2cc(O)cc(-c3ncc4c(N5CCOC[C@@]6(C5)CC6(F)F)nc(OC[C@@]56CCCN5C[C@H](F)C6)nc4c3F)c12 [Example 498, 4-(4-((S)-1,1-difluoro-5-oxa-8-azaspiro[2.6]nonan-8-yl)-8-fluoro-2-(((2R,7aS)-2-fluorohexahydro-1H-pyrrolizin-7a-yl)methoxy)pyrido[4,3-d]pyrimidin-7-yl)-5-ethyl-6-fluoronaphthalen-2-ol]

Reference: US12398154B2, “Azaquinazoline pan-KRas inhibitors” (Mirati Therapeutics, Inc., priority 2020, dated 2025)
